Test results as given in ChEMBL document CHEMBL2074080, “Enhanced drug-induced apoptosis associated with P-glycoprotein overexpression is specific to antimicrotubule agents” (Pharm Res, 2003).

Biological target: ATP-dependent translocase ABCB1 (Homo sapiens, UniProt P08183)
Test: TP_TRANSPORTER: drug resistance in MDR1-expressing MCF7 cells
Format: functional, cell-based

ATP-dependent translocase ABCB1, sequence (P08183 whole entry): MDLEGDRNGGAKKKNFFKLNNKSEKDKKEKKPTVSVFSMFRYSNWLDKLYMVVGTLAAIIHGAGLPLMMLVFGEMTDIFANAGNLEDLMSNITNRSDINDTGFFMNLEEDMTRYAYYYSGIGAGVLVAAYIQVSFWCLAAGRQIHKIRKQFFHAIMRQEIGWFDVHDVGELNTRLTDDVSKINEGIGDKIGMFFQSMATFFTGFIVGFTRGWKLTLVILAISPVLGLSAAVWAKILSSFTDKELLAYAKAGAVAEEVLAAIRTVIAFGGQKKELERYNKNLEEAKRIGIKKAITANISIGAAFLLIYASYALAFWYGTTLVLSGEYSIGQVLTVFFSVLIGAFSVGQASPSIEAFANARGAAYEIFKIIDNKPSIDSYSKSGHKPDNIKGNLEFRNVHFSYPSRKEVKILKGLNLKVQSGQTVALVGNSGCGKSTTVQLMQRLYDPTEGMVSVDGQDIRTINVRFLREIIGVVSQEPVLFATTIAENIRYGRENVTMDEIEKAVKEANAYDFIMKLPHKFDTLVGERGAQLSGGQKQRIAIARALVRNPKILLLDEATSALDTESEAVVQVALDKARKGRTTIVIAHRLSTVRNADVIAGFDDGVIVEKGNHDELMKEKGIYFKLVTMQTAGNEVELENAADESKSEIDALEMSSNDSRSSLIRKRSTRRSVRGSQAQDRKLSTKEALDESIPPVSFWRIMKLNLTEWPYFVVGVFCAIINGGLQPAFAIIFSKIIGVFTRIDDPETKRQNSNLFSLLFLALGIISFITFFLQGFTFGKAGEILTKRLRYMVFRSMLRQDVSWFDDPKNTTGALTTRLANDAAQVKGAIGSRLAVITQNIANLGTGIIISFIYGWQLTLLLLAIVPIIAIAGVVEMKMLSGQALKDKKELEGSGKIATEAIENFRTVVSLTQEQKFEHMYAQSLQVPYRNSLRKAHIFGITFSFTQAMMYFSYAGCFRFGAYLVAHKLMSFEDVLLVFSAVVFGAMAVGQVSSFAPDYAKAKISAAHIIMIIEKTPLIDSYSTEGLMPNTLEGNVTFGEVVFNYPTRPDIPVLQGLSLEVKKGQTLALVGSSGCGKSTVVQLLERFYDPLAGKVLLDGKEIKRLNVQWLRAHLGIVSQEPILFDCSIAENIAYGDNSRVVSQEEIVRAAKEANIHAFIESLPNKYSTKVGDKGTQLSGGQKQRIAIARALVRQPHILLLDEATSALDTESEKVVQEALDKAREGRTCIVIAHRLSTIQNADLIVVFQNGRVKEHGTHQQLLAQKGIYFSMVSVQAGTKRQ

CC[C@]1(O)C[C@H]2CN(CCc3c([nH]c4ccccc34)[C@@](C(=O)OC)(c3cc4c(cc3OC)N(C=O)[C@H]3[C@@](O)(C(=O)OC)[C@H](OC(C)=O)[C@]5(CC)C=CCN6CC[C@]43[C@@H]65)C2)C1 [VINCRISTINE]
Activity: substrate [+]

COc1cccc2c1C(=O)c1c(O)c3c(c(O)c1C2=O)C[C@@](O)(C(=O)CO)C[C@@H]3O[C@H]1C[C@H](N)[C@H](O)[C@H](C)O1 [DOXORUBICIN]
Activity: substrate [+]

CISPLATIN
Activity: is not a substrate [-]

O=c1[nH]c(=O)n([C@@H]2O[C@H](CO)[C@@H](O)[C@H]2O)cc1F [5-FLUOROURIDINE]
Activity: is not a substrate [-]

CC[C@@]1(O)C(=O)OCc2c1cc1n(c2=O)Cc2cc3ccccc3nc2-1 [CAMPTOTHECIN]
Activity: is not a substrate [-]

CC(=O)O[C@H]1C(=O)[C@@]2(C)[C@H]([C@H](OC(=O)c3ccccc3)[C@]3(O)C[C@H](OC(=O)[C@H](O)[C@@H](NC(=O)c4ccccc4)c4ccccc4)C(C)=C1C3(C)C)[C@]1(OC(C)=O)CO[C@@H]1C[C@@H]2O [PACLITAXEL]
Activity: substrate [+]
